Like-named read-outs stand apart in the source and are kept apart here.
Tests used:
[1] = Host cell toxicity, resazurin assay; type: cell-based; details: human
[2] = Animal cytotoxicity, CCK-8 assay; type: cell-based, bovine; details: bovine, MDBK (Madin-Darby bovine kidney) cells
[3] = test system: L. donovani strain 9515 promastigotes; assay: Antipromastigote resazurin assay; type: cell-based, Leishmania donovani; details: for AG (activity gain): IC50 (1)/IC50 (compd.), L. donovani promastigotes; for SI1: SI1 = IC50 Vero/IC50 promastigote, L. donovani; for IC50: Leishmania donovani, read-out: Antipromastigote activity IC50
General = type: cell-based; details: African green monkey, Vero cells (monkey kidney epithelial cells)
[4] = test system: T. brucei gambiense strain IL1922; assay: Antitrypanosomal assay; type: cell-based, Trypanosoma brucei gambiense; details: IC50 of MDBK/IC50 of trypanosome
[5] = test system: T. brucei rhodesiense strain IL1501; assay: Antitrypanosomal assay; type: cell-based, Trypanosoma brucei rhodesiense; details: IC50 of MDBK/IC50 of trypanosome
[6] = test system: L. major strain NIH S intramacrophage amastigotes; assay: Intramacrophage antileishmanial resazurin assay; type: cell-based, Leishmania major; details: L. major; for SI5: SI5 = IC50 Vero/static IC50 amastigote; for SI6: SI6 = IC50 Vero/cidal IC50 amastigote; for SpI3: SpI3 = IC50 promastigote/static IC50 amastigote; for SpI4: SpI4 = IC50 promastigote/cidal IC50 amastigote
Trypanosoma spp. = assay: Antitrypanosomal assay, several species; type: cell-based; details: read-out: IC50 against several Trypanosoma spp.
[7] = test system: L. major strain NIH S promastigotes; assay: Antipromastigote resazurin assay; type: cell-based, Leishmania major; details: for AG (activity gain): IC50 (1)/IC50 (compd.), L. major promastigotes; for SI4: SI4 = IC50 Vero/IC50 promastigote, L. major; for IC50: Leishmania major, read-out: Antipromastigote activity IC50
[8] = test system: T. brucei brucei strain GUTat3.1; assay: Antitrypanosomal assay; type: cell-based, Trypanosoma brucei brucei; details: for SI Tbb GuTat3.1: IC50 of MDBK/IC50 of trypanosome; for IC50: read-out: Antitrypomastigote activity IC50 ± SD Tbb GuTat3.1
[9] = Solubility observed during sample preparation and screening; type: physicochemical; details: aqueous screening medium
[10] = test system: T. equiperdum strain IVM-t1; assay: Antitrypanosomal assay; type: cell-based, Trypanosoma equiperdum; details: for SI Teq IVM-t1: IC50 of MDBK/IC50 of trypanosome
[11] = test system: T. congolense strain IL3000; assay: Antitrypanosomal assay; type: cell-based, Trypanosoma congolense; details: IC50 of MDBK/IC50 of trypanosome
MDBK cells = assay: Animal cytotoxicity, CCK-8 assay; type: cell-based, bovine; details: read-out: Cytotoxicity IC50 ± SD MDBK; MDBK cells; three biological replicates

Compound | IC50 [1] | IC50 [2] | AG (activity gain) [3] | SI1 [3] | IC50 (General) | SI Tbg IL1922 [4] | SI Tbr IL1501 [5] | SI5 [6] | SI6 [6] | SpI3 [6] | SpI4 [6] | IC50 (Trypanosoma spp.) | AG (activity gain) [7] | SI4 [7] | SI Tbb GuTat3.1 [8] | IC50 ([8]; Trypanosoma brucei) | IC50 [3] | Solubility in aqueous screening medium [9] | SI Teq IVM-t1 [10] | IC50 [7] | also measured
O=Cc1cn(Cc2ccc(F)cc2)c2ccc([N+](=O)[O-])cc12 [2e, 1-(4-Fluorobenzyl)-5-nitro-1 H-indole-3-carbaldehyde] | > 100 µM | > 335 µM | 0.5 | 1 | > 100 µM | 15 | 4 | 8 | 8 | 7 | 8 | 20 to 40 µM | 0.5 | 1 | 22 | 15 ± 8.48 µM | – | – | – | – | –
O=C1NC(=S)S/C1=C\c1c[nH]c2ccc([N+](=O)[O-])cc12 [3a, (Z)-5-[(5-Nitro-1 H-indol-3-yl)methylene]-2-thioxothiazolidin-4-one] | > 100 µM | 31.6 ± 1.67 µM | – | – | 15.2 ± 0.32 µM | 1 | 0 | 25 | 27 | 166 | 175 | – | – | – | 1 | 33.7 ± 5.01 µM | > 100 µM | poor solubility | 1 | > 100 µM | SI Tc IL3000 [11]: 1
C#CCn1cc(/C=C2\SC(=S)NC2=O)c2cc([N+](=O)[O-])ccc21 [3b, (Z)-5-{[5-Nitro-1-(prop-2-yn-1-yl)-1 H-indol-3-yl]methylene}-2-thioxothiazolidin-4-one] | – | > 312 µM | 0.7 | 0.2 | 13.5 ± 0.8 µM | – | 4 | – | – | – | – | 20 to 40 µM | 0.9 | 0.2 | – | > 78 µM | 68.7 ± 6.55 µM | poor solubility | – | 56.8 ± 5.57 µM | –
CC(=O)NCC(=O)O.CC(=O)NCC(=O)O.N=C(N)c1ccc(N=NNc2ccc(C(=N)N)cc2)cc1 [Diminazine aceturate, diminazene aceturate, reference compound] | – | – | – | – | – | 33333 | 9091 | – | – | – | – | – | – | – | 5263 | – | – | – | 16340 | – | IC50 (MDBK cells): > 355 µM; IC50 ([10]; read-out: Antitrypomastigote activity IC50 ± SD Teq IVM-t1, three biological replicates): 0.022 ± 0.002 µM; IC50 ([8]; three biological replicates): 0.068 µM; SI Tc IL3000 [11]: 4000

Source: paper PMC11901381 (Future Medicinal Chemistry, 2025)
